In US4330529A, “Antibacterial composition” (Fujisawa Pharmaceutical Co., Ltd., priority 1979, dated 1982):
Read-outs that look alike come from different tables or passages of the source.

Legend:
Escherichia coli 1341-27 = assay: MIC and FIC, Nutrient broth (Test 1); assay type: cell-based; details: for FIC: in 1:1 mixture C
Experimental: (§1) Further, in order to observe the degree of synergistic antimicrobial activity, Fractional Inhibitory Concentration (FIC) values and FIC Index were calculated from the determined MIC values according to the following calculation method, respectively.
(§2) In the case that the combination ratio of a mixture of monosodium salt of 3-(N-acetyl-N-hydroxyamino)propylphosphonic acid and monosodium salt of nocardicin A is m:n (by weight), each of FIC values and FIC indexes was calculated according to the following equations. [formula]

Escherichia coli 1341-35 = assay: MIC and FIC, Nutrient broth (Test 1); assay type: cell-based; details: for FIC: in 1:1 mixture C
Experimental: as §1, §2

[1] = system: Klebsiella pneumoniae 1391-2; assay: MIC and FIC, Nutrient broth (Test 1); assay type: cell-based; details: for FIC: in 1:1 mixture C
Experimental: as §1, §2

[2] = system: Klebsiella pneumoniae 1391-3; assay: MIC and FIC, Nutrient broth (Test 1); assay type: cell-based; details: for FIC: in 1:1 mixture C
Experimental: as §1, §2

[3] = system: Klebsiella pneumoniae 1391-5; assay: MIC and FIC, Nutrient broth (Test 1); assay type: cell-based; details: for FIC: in 1:1 mixture C
Experimental: as §1, §2

[4] = system: Pseudomonas aeruginosa 1101-64; assay: MIC and FIC, Nutrient broth (Test 1); assay type: cell-based; details: for FIC: in 1:1 mixture C
Experimental: as §1, §2

[5] = system: Pseudomonas aeruginosa 1101-66; assay: MIC and FIC, Nutrient broth (Test 1); assay type: cell-based; details: for FIC: in 1:1 mixture C
Experimental: as §1, §2

[6] = system: Pseudomonas aeruginosa 1101-67; assay: MIC and FIC, Nutrient broth (Test 1); assay type: cell-based; details: for FIC: in 1:1 mixture C
Experimental: as §1, §2

[7] = system: Pseudomonas aeruginosa 1101-68; assay: MIC and FIC, Nutrient broth (Test 1); assay type: cell-based; details: for FIC: in 1:1 mixture C
Experimental: as §1, §2

[8] = system: Serratia marcescens 1421-5; assay: MIC and FIC, Nutrient broth (Test 1); assay type: cell-based; details: for FIC: in 1:1 mixture C
Experimental: as §1, §2

[9] = system: Klebsiella pneumoniae 1391-1; assay: microbe, parasite or virus in culture; assay type: cell-based; details: for FIC: in 1:1 mixture C
Experimental: as §1, §2

[10] = system: Pseudomonas aeruginosa 1101-63; assay: microbe, parasite or virus in culture; assay type: cell-based; details: for FIC: in 1:1 mixture C
Experimental: as §1, §2

[11] = system: Serratia marcescens 1421-1; assay: microbe, parasite or virus in culture; assay type: cell-based; details: for FIC: in 1:1 mixture C
Experimental: as §1, §2

[12] = system: Serratia marcescens 1421-3; assay: microbe, parasite or virus in culture; assay type: cell-based; details: for FIC: in 1:1 mixture C
Experimental: as §1, §2

[13] = system: Serratia marcescens 1421-4; assay: microbe, parasite or virus in culture; assay type: cell-based; details: for FIC: in 1:1 mixture C
Experimental: as §1, §2

[14] = system: Klebsiella pneumoniae NCTC 418; assay: MIC and FIC, Nutrient agar (Tests 2, 3); assay type: cell-based; details: NCTC418, K. pneumoniae NCTC 418, 20 h
Experimental: After the incubation was carried out at 37° C. for 20 hours, MIC values were determined.

[15] = system: Salmonella typhimurium 1406; assay: MIC and FIC, Nutrient agar (Tests 2, 3); assay type: cell-based; details: Salmonella enterica; S. typhimurium 1406; 20 h; read-out: MIC
[16] = system: Serratia marcescens 1421-4; assay: MIC and FIC, Nutrient agar (Tests 2, 3); assay type: cell-based; details: Serratia marcescens, 14214, 20 h
[17] = system: Proteus mirabilis 1432-75; assay: MIC and FIC, Nutrient agar (Tests 2, 3); assay type: cell-based; details: Proteus mirabilis, 143275, 20 h
[18] = system: Pseudomonas aeruginosa 1101-5; assay type: in vivo, mice (ICR-strain male); details: P. aeruginosa 1101-5; for FIC: in 1:1 mixture C, from ED50; for ED50: s.c. 1 h after i.p. inoculation, survival at one week
Experimental: (§3) ICR-strain male mice weighing 23-25 g (10 mice per one group) were used. A prescribed amount of the pathogenic bacteria suspended in 5% aqueous mucin suspension (0.5 ml.) was inoculated intraperitoneally into each mouse. One hour after the inoculation, the antibiotics as mentioned in the following table were administered subcutaneously, and then survival of the test mice was measured one week after the infection to determine ED50 value.
(§4) Incidentally, FIC values and FIC index in this in vivo test also calculated from the determined ED50 values according to the following calculation method.
(§5) On the basis of the fact that the combination ratio of a mixture of monosodium salt of 3-(N-acetyl-N- hydroxyamino)propylphosphonic acid and monosodium salt of nocardicin A is 1:1 (by weight), each of FIC values and FIC index was calculated according to the following equations.
(§6) FIC of monosodium salt of 3-(N-acetyl-N-hydroxyamino)propylphosphonic acid=1/2 C'ab/A'o
(§7) FIC of monosodium salt of nocardicin A=1/2 C'ab/B'o
(§8) FIC index=1/2 C'ab/A'o+1/2 C'ab/B'o

[19] = system: Pseudomonas aeruginosa 1101-7; assay type: in vivo, mice (ICR-strain male); details: P. aeruginosa 1101-7; for FIC: in 1:1 mixture C, from ED50; for ED50: s.c. 1 h after i.p. inoculation, survival at one week
Experimental: as §3, §4, §5, §6, §7, §8

Citrobacter freundii 35 = assay: MIC and FIC, Nutrient agar (Tests 6, 7, 9); assay type: cell-based; details: Citrobacter freundii, 35, 18 h
Enterobacter aerogenes 7 = assay: MIC and FIC, Nutrient agar (Tests 6, 7, 9); assay type: cell-based; details: Klebsiella aerogenes; E. aerogenes 7; 18 h; read-out: MIC
Experimental: (§9) FIC values and FIC Index were calculated in substantially the same manner as described in Test 1.

Staphylococcus aureus 3 = assay: MIC and FIC, Nutrient agar (Tests 6, 7); assay type: cell-based; details: Staphylococcus aureus; S. aureus 3; 18 h; read-out: MIC
Experimental: as §9

| SMILES | FIC (Escherichia coli 1341-27; E. coli 1341-27) | FIC (Escherichia coli 1341-35; E. coli 1341-35) | FIC ([1]; K. pneumoniae 1391-2) | FIC ([2]; K. pneumoniae 1391-3) | FIC ([3]; K. pneumoniae 1391-5) | FIC ([4]; P. aeruginosa 1101-64) | FIC ([5]; P. aeruginosa 1101-66) | FIC ([6]; P. aeruginosa 1101-67) | FIC ([7]; P. aeruginosa 1101-68) | FIC ([8]; S. marcescens 1421-5) | FIC ([9]; K. pneumoniae 1391-1) | FIC ([10]; P. aeruginosa 1101-63) | FIC ([11]; S. marcescens 1421-1) | FIC ([12]; S. marcescens 1421-3) | FIC ([13]; S. marcescens 1421-4) | FIC [18] | ED50 [18] [mg/mouse] | FIC [19] | ED50 [19] [mg/mouse] | further results |
| --- | --- | --- | --- | --- | --- | --- | --- | --- | --- | --- | --- | --- | --- | --- | --- | --- | --- | --- | --- | --- |
| N[C@H](CCOc1ccc(/C(=N/O)C(=O)N[C@H]2CN([C@@H](C(=O)O)c3ccc(O)cc3)C2=O)cc1)C(=O)O [B (Table 1), nocardicin A] | 0.250 | 0.250 | 0.250 | 0.250 | 0.125 | 0.125 | 0.250 | 0.250 | 0.250 | 0.063 | 0.063 | 0.125 | 0.063 | 0.125 | 0.063 | 0.273 | 1.3 | 0.083 | 15.0 | MIC (Escherichia coli 1341-27; Escherichia coli, 134127, E. coli 1341-27, 20 h, read-out: MIC): 100 µg/mL; MIC (Escherichia coli 1341-35; Escherichia coli, 134135, E. coli 1341-35, 20 h, read-out: MIC): 100 µg/mL; MIC ([1]; Klebsiella pneumoniae, 13912, K. pneumoniae 1391-2, 20 h, read-out: MIC): 800 µg/mL; MIC ([2]; Klebsiella pneumoniae, 13913, K. pneumoniae 1391-3, 20 h, read-out: MIC): 800 µg/mL; MIC ([3]; Klebsiella pneumoniae, 13915, K. pneumoniae 1391-5, 20 h, read-out: MIC): 800 µg/mL; MIC ([4]; Pseudomonas aeruginosa, 110164, P. aeruginosa 1101-64, 20 h, read-out: MIC): 200 µg/mL; MIC ([5]; Pseudomonas aeruginosa, 110166, P. aeruginosa 1101-66, 20 h, read-out: MIC): 100 µg/mL; MIC ([6]; Pseudomonas aeruginosa, 110167, P. aeruginosa 1101-67, 20 h, read-out: MIC): 200 µg/mL; MIC ([7]; Pseudomonas aeruginosa, 110168, P. aeruginosa 1101-68, 20 h, read-out: MIC): 100 µg/mL; MIC ([8]; Serratia marcescens, 14215, S. marcescens 1421-5, 20 h, read-out: MIC): 200 µg/mL; MIC ([9]; Klebsiella pneumoniae, 13911, K. pneumoniae 1391-1, 20 h, read-out: MIC): 800 µg/mL; MIC ([10]; Pseudomonas aeruginosa, 110163, P. aeruginosa 1101-63, 20 h, read-out: MIC): 400 µg/mL; MIC ([11]; Serratia marcescens, 14211, S. marcescens 1421-1, 20 h, read-out: MIC): 100 µg/mL; MIC ([12]; Serratia marcescens, 14213, S. marcescens 1421-3, 20 h, read-out: MIC): 400 µg/mL; MIC ([13]; Serratia marcescens, 14214, S. marcescens 1421-4, broth, 20 h, read-out: MIC): 400 µg/mL; MIC [14]: 200 µg/mL; MIC [15]: 25 µg/mL; MIC [16]: 25 µg/mL; MIC [17]: 3.13 µg/mL |
| NC[C@H]1O[C@H](O[C@H]2[C@H](O)[C@@H](O[C@H]3O[C@H](CO)[C@@H](O)[C@H](N)[C@H]3O)[C@H](N)C[C@@H]2N)[C@H](N)C[C@@H]1O [B (Table 9), Tobramycin] | – | – | – | – | – | – | – | – | – | – | – | – | – | – | – | – | – | – | – | MIC (Citrobacter freundii 35): 3.13 µg/mL; MIC (Enterobacter aerogenes 7): 6.25 µg/mL; MIC (Staphylococcus aureus 3): 0.39 µg/mL |
| CC(=O)N(O)CCCP(=O)(O)O [A (Table 1), 3-(N-acetyl-N-hydroxyamino)propylphosphonic acid] | 0.125 | 0.250 | < 0.250 | 0.250 | 0.250 | < 0.031 | 0.125 | 0.250 | 0.031 | < 0.016 | 0.125 | 0.063 | < 0.008 | < 0.063 | < 0.031 | < 0.018 | > 20 | < 0.063 | > 20 | MIC (Escherichia coli 1341-27; Escherichia coli, 134127, 20 h): 200 µg/mL; MIC (Escherichia coli 1341-35; Escherichia coli, 134135, 20 h): 100 µg/mL; MIC ([1]; Klebsiella pneumoniae, 13912, 20 h): > 800 µg/mL; MIC ([2]; Klebsiella pneumoniae, 13913, 20 h): 800 µg/mL; MIC ([3]; Klebsiella pneumoniae, 13915, 20 h): 400 µg/mL; MIC ([4]; Pseudomonas aeruginosa, 110164, 20 h): > 800 µg/mL; MIC ([5]; Pseudomonas aeruginosa, 110166, 20 h): 200 µg/mL; MIC ([6]; Pseudomonas aeruginosa, 110167, 20 h): 200 µg/mL; MIC ([7]; Pseudomonas aeruginosa, 110168, 20 h): 800 µg/mL; MIC ([8]; Serratia marcescens, 14215, 20 h): > 800 µg/mL; MIC ([9]; Klebsiella pneumoniae, 13911, 20 h): 400 µg/mL; MIC ([10]; Pseudomonas aeruginosa, 110163, 20 h): 800 µg/mL; MIC ([11]; Serratia marcescens, 14211, 20 h): > 800 µg/mL; MIC ([12]; Serratia marcescens, 14213, 20 h): > 800 µg/mL; MIC ([13]; Serratia marcescens, 14214, 20 h): > 800 µg/mL |
